Assay: xn = mol fraction of the nth substance listed
Conditions: 100 kPa, Liquid; for viscosity: Capillary tube (Ostwald / Ubbelohde) method; for speed of sound: Frequency=2 MHz, Linear variable-path acoustic interferometer; for mass density: Vibrating tube method

Nc1cccc(Cl)c1 [3-chlorobenzenamine] + OCCc1ccccc1
Conditions | mass density [kg/m3] | speed of sound [m/s] | viscosity [mPa·s]
303.15 K, x1 = 0.0855 | 1027.23 | 1509.6 | 8.643
303.15 K, x1 = 0.1746 | 1043.06 | 1511 | 8.223
303.15 K, x1 = 0.2665 | 1059.74 | 1512.3 | 7.787
303.15 K, x1 = 0.3613 | 1077.27 | 1513.6 | 7.335
303.15 K, x1 = 0.4491 | 1093.81 | 1514.6 | 6.916
303.15 K, x1 = 0.5201 | 1107.41 | 1515.4 | 6.576
303.15 K, x1 = 0.6594 | 1134.71 | 1516.5 | 5.907
303.15 K, x1 = 0.7692 | 1156.83 | 1517 | 5.377
303.15 K, x1 = 0.8787 | 1179.49 | 1517.3 | 4.846
303.15 K, x1 = 1 | 1205.32 | 1517.5 | 4.255
308.15 K, x1 = 0.0855 | 1023.5 | 1492.2 | 6.915
308.15 K, x1 = 0.1746 | 1039.28 | 1493.6 | 6.623
308.15 K, x1 = 0.2665 | 1055.88 | 1495 | 6.319
308.15 K, x1 = 0.3613 | 1073.34 | 1496.3 | 6.005
308.15 K, x1 = 0.4491 | 1089.81 | 1497.4 | 5.712
308.15 K, x1 = 0.5201 | 1103.34 | 1498.3 | 5.473
308.15 K, x1 = 0.6594 | 1130.52 | 1499.6 | 5.005
308.15 K, x1 = 0.7692 | 1152.56 | 1500.4 | 4.632
308.15 K, x1 = 0.8787 | 1175.08 | 1500.9 | 4.259
308.15 K, x1 = 1 | 1200.75 | 1501.2 | 3.842
313.15 K, x1 = 0.0855 | 1019.67 | 1472 | 5.867
313.15 K, x1 = 0.1746 | 1035.39 | 1473.4 | 5.638
313.15 K, x1 = 0.2665 | 1051.92 | 1474.6 | 5.398
313.15 K, x1 = 0.3613 | 1069.28 | 1475.8 | 5.149
313.15 K, x1 = 0.4491 | 1085.67 | 1476.9 | 4.918
313.15 K, x1 = 0.5201 | 1099.15 | 1477.7 | 4.729
313.15 K, x1 = 0.6594 | 1126.19 | 1478.9 | 4.357
313.15 K, x1 = 0.7692 | 1148.11 | 1479.7 | 4.061
313.15 K, x1 = 0.8787 | 1170.53 | 1480.3 | 3.763
313.15 K, x1 = 1 | 1196.02 | 1480.3 | 3.43
318.15 K, x1 = 0.0855 | 1015.75 | 1457.9 | 4.827
318.15 K, x1 = 0.1746 | 1031.43 | 1459.1 | 4.659
318.15 K, x1 = 0.2665 | 1047.87 | 1460.2 | 4.483
318.15 K, x1 = 0.3613 | 1065.15 | 1461.2 | 4.3
318.15 K, x1 = 0.4491 | 1081.46 | 1462.1 | 4.129
318.15 K, x1 = 0.5201 | 1094.86 | 1462.8 | 3.989
318.15 K, x1 = 0.6594 | 1121.8 | 1463.9 | 3.714
318.15 K, x1 = 0.7692 | 1143.63 | 1464.6 | 3.494
318.15 K, x1 = 0.8787 | 1165.92 | 1464.8 | 3.272
318.15 K, x1 = 1 | 1191.25 | 1464.8 | 3.022

Reference: the NIST ThermoML archive (doi:10.1016/j.jct.2015.11.012)
